{
  "source": "patent US20190374601A1",
  "about": "“METHODS FOR TREATING FUNGAL INFECTIONS” (priority 2017, published 2019)",
  "format_in_all_cases": "in vivo",
  "key": {"[1]": {"tested_on": "T. mentagrophytes ATCC 24953", "experiment": "Clinical evaluation of infected skin, T. mentagrophytes dermatophytosis guinea pig model, Example 1", "conditions": "evaluated study day 10, relative to vehicle control", "protocol": "(§1) A request was made to the Animal Resource Center (ARC) at Case Western Reserve University to order the required number of male albino Harlan-Sprague-Dawley Guinea-Pigs (San Diego, Calif.) with a body weight of 450-500 g. Animals were allowed to acclimate for a minimum of 5 days prior to use. Environmental controls for the animal room were set to maintain a temperature of 16 to 22° C., a relative humidity of 30-70%, and a 12:12 light-dark cycle.\n(§2) T. mentagrophytes ATCC 24953 was used as the infecting fungus. This strain was selected because it can cause skin infection and results in inflammatory reaction.\n(§3) T. mentagrophytes (from frozen stock) was sub-cultured on Potato Dextrose Agar plates and incubated at 30° C. for 5-7 days. The colonies were scraped from the plates using sterile normal saline (NaCl 0.85%) solution. After washing for three times with sterile saline the conidia were re-suspended in the same solution. Ten-fold dilutions of conidia suspension were prepared and counted using a hemacytometer. Working suspension of conidia was prepared at a final concentration of 1×10^7 Colony Forming Units (CFUs)/100 μL in normal saline.\n(§4) Each animal was anesthetized with a cocktail of xylazine and ketamine: 0.2 mL intramuscularly. Using an electric shaver, hair was clipped on left side of the guinea pig back. A closer shave was done with a disposable razor. Using a stencil, a square of 2.5 cm×2.5 cm was marked. The marked skin area was abraded with sterile fine grit sandpaper. A cell suspension containing 1×10^7 conidia in 100 μL was applied and rubbed thoroughly on the abraded skin.\n(§5) Beginning two hours post inoculation, animals were treated subcutaneously (SQ) for CD101 and orally (PO) terbinafine once daily for a period of nine days, or once a week on days 1 and 8.\n(§6) Study Day 1: Infected the animals with T. mentagrophytes and begin treatments.\n(§7) Study Day 9 (treatment day 9): End treatments.\n(§8) Study Day 10: Clinical evaluation of the four quadrants in the marked area was done. Hair samples were obtained from each quadrant (10 per quadrant). Hairs were planted in Potato Dextrose Agar, and incubated for 48 h for mycological evaluation. Procedures for clinical and mycological evaluations are described below.\n(§9) CD101 was administered SQ in 0.3 mL, while the terbinafine was given orally in 0.3 mL. Vehicle treated group was also included.\n(§10) Clinical assessment of local changes of the infected skin area was scored as follows:\n(§11) 1=Few slightly erythematous places on the skin\n(§12) 2=Well-defined redness, swelling with bristling hairs.\n(§13) 3=Large areas or marked redness incrustation, scaling, bald patches, ulcerated in places.\n(§14) 4=Partial damage to the integument and loss of hair\n(§15) 5=Extensive damage to the integument and complete loss of hair at the site of infection.\nAny other local skin reactions were noted. The assessment of clinical evaluation in the change of scores per treatment group is expressed as percentage relative to the vehicle control group of animals using the following formula:\nwhere, T=Scores in the test group. K=Scores in the untreated control"}, "T. mentagrophytes [2]": {"tested_on": "T. mentagrophytes", "experiment": "Hair root invasion test (mycological evaluation), T. mentagrophytes dermatophytosis guinea pig model, different doses once weekly, Example 2", "conditions": "10 mg/kg PO days 1 and 8, evaluated study day 12, relative to vehicle control", "protocol": "(§16) Procedures for animal care and use, preparation of standard inoculum, and infection of the animals were carried out following the same steps as described in Example 1.\n(§17) Infected guinea pigs were randomized into the following (1)-(5) groups (10 per group) (see Table 4): (1) a vehicle control (water+mannitol); (2) terbinafine 10 mg/kg PO days 1 and 8, as a positive control; (3) CD101 10 mg/kg SQ days 1 and 8; (4) CD101 20 mg/kg SQ days 1 and 8; and (5) CD101 40 mg/kg SQ days 1 and 8.\n(§18) Animals were treated with CD101 SQ or PO (for terbinafine) once a week on days 1 and 8.\n(§19) Study Day 1: Infect the animals with T. mentagrophytes and begin treatments.\n(§20) Study Day 8: Last treatment.\nas §8, with “Day 12:” for “Day 10:”, “area is” for “area was”, “each quadrant. Hairs” for “each quadrant”, “per quadrant)” for “per quadrant). Hairs”\n(§21) The compounds was administered SQ or PO (0.3 mL/kg […]).\n(§22) Hair samples were removed with sterile forceps from four quadrants. Ten hair samples from each quadrant were inoculated onto the corresponding quadrant on the Potato Dextrose agar plate and incubated at 30° C. for 2 days. The fungal growth at the hair root was examined under a stereomicroscope. The effectiveness of a compound in reducing the number of mycologically positive hair sample per treated group was expressed as percentage relative to the untreated control group of animals using the following formula:\nwhere T=Positive hair in the test group, K=Positive hair in the Untreated control."}, "[3]": {"tested_on": "T. mentagrophytes ATCC 24953", "experiment": "Hair root invasion test (mycological evaluation), T. mentagrophytes dermatophytosis guinea pig model, Example 1", "conditions": "evaluated study day 10, relative to vehicle control", "protocol": "as §1, §2, §3, §4, §5, §6, §7, §8, §9\nas §22, with “with a” for “with”, “group is” for “group was”, “the vehicle” for “the untreated”\nwhere, T=Positive hair in the test group, K=Positive hair in the Untreated control."}, "T. mentagrophytes [4]": {"tested_on": "T. mentagrophytes", "experiment": "Clinical evaluation of infected skin, T. mentagrophytes dermatophytosis guinea pig model, different doses once weekly, Example 2", "conditions": "10 mg/kg PO days 1 and 8, evaluated study day 12, relative to vehicle control", "protocol": "as §16, §17, §18, §19, §20\nas §8, with “Day 12:” for “Day 10:”, “area is” for “area was”, “each quadrant. Hairs” for “each quadrant”, “per quadrant)” for “per quadrant). Hairs”\nas §21, §10, §11, §12, §13, §14, §15\nAny other local skin reactions were noted. The assessment of clinical evaluation in the change of scores per treatment group was expressed as percentage relative to the untreated control group of animals using the following formula:\nwhere T=Scores in the test group. K=Scores in the untreated control"}, "[5]": {"conditions": "10 mg/kg PO daily for nine days"}, "[6]": {"conditions": "10 mg/kg PO daily for nine days, listed as terbinafine"}, "[7]": {"conditions": "10 mg/kg PO once a week (days 1 and 8)"}, "[8]": {"conditions": "10 mg/kg PO once a week (days 1 and 8), listed as terbinafine"}},
  "note": "Marks after values point to notes of the source that are not given here.",
  "data": [
    {"smiles": "CN(C/C=C/C#CC(C)(C)C)Cc1cccc2ccccc12", "note": "[Terbinafine, terbinafine, reference compound]", "values": [
      {"measurement": "Percent Efficacy Clinical", "setting": "[1]; [5]", "result": "78.7* %"},
      {"measurement": "Percent Efficacy Clinical", "setting": "[1]; [6]", "result": 78.7, "unit": "%"},
      {"measurement": "Percent Efficacy Clinical", "setting": "[1]; [7]", "result": "60.6* %"},
      {"measurement": "Percent Efficacy Clinical", "setting": "[1]; [8]", "result": 60.6, "unit": "%"},
      {"measurement": "Percent Efficacy Mycological", "setting": "T. mentagrophytes [2]", "result": "54.2* %"},
      {"measurement": "Percent Efficacy Mycological", "setting": "T. mentagrophytes [2]; listed as terbinafine", "result": 54.2, "unit": "%"},
      {"measurement": "Percent Efficacy Mycological", "setting": "[3]; [5]", "result": "91.6* %"},
      {"measurement": "Percent Efficacy Mycological", "setting": "[3]; [6]", "result": 91.6, "unit": "%"},
      {"measurement": "Percent Efficacy Mycological", "setting": "[3]; [7]", "result": "83.1* %"},
      {"measurement": "Percent Efficacy Mycological", "setting": "[3]; [8]", "result": 83.1, "unit": "%"},
      {"measurement": "Percent Efficacy Clinical", "setting": "T. mentagrophytes [4]", "result": "76.8* %"},
      {"measurement": "Percent Efficacy Clinical", "setting": "T. mentagrophytes [4]; listed as terbinafine", "result": 76.8, "unit": "%"}
    ]}
  ]
}
